Read-outs that look alike come from different tables or passages of the source.
Biological target: T1, Cbl-b (truncated variant, UniProt number Q13191) (Homo sapiens, UniProt Q13191)
T1 construct: made in house
Assay: Cbl-b activity assay (TR-FRET, interaction of Cbl-b with UbcH5B-Ub)
Type: biochemical

[1] = high conditions: 100 mM NaCl, 60 nM Src kinase, 12 nM Cbl-b, read-out: Cbl-b activity IC50
[2] = Biological Example 1A, low or high conditions not stated, read-out: IC50 values in the Cbl-b inhibition assay of Biological Example 1A

T1 sequence (Q13191 36-427): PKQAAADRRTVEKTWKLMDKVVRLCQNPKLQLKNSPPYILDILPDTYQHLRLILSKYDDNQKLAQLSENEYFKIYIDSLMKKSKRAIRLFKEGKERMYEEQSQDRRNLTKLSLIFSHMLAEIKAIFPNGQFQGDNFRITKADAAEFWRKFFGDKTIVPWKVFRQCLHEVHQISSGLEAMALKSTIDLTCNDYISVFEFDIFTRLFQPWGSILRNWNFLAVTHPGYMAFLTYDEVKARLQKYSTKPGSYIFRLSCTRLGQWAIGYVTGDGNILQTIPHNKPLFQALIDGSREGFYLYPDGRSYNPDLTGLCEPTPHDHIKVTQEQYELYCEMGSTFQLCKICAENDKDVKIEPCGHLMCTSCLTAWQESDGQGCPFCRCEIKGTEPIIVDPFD

| IC50 [1] [µM] | IC50 [2] [µM] | SMILES |
| --- | --- | --- |
| < 0.1 |  | Cn1cnnc1C(F)(F)[C@](C)(F)c1cccc(NC(=O)N2CC3(CNC3)Oc3cccnc32)c1 [Example 28, (R)—N-(3-(1,1,2-trifluoro-1-(4-methyl-4H-1,2,4-triazol-3-yl)propan-2-yl)phenyl)spiro[azetidine-3,2′-pyrido[3,2-b][1,4]oxazine]-4′(3′H)-carboxamide] |
| < 0.1 | < 0.1 | C[C@H](Cc1nncn1C)c1cccc(NC(=O)N2CCOc3cccnc32)c1 [Example 10, (R)—N-(3-(1-(4-methyl-4H-1,2,4-triazol-3-yl)propan-2-yl)phenyl)-2,3-dihydro-4H-pyrido[3,2-b][1,4]oxazine-4-carboxamide] |
| 1 to 5 | 1 to 5 | CNC(=O)c1ccc(-c2cc(-c3cccc([C@H](C)Sc4nncn4C)c3)on2)cc1 [Example 65, (S)—N-methyl-4-(5-(3-(1-(4-methyl-4H-1,2,4-triazol-3-ylthio)ethyl)phenyl)isoxazol-3-yl)benzamide] |
| ≥ 5 |  | C[C@H](Sc1nncn1C)c1cccc(NC(=O)N2CCOC3(CCC3)C2)c1 [Example 43, (S)—N-(3-(1-((4-methyl-4H-1,2,4-triazol-3-yl)thio)ethyl)phenyl)-5-oxa-8-azaspiro[3.5]nonane-8-carboxamide] |
| ≥ 5 |  | C[C@H](Sc1nncn1C)c1cccc(NC(=O)N2CCN(C)CC2)c1 [Example 155, (S)-4-methyl-N-(3-(1-((4-methyl-4H-1,2,4-triazol-3-yl)thio)ethyl)phenyl)piperazine-1-carboxamide] |
| ≥ 5 |  | C[C@H](Sc1nncn1C)c1cccc(C(=O)Nc2ccc3ccccc3n2)c1 [Example 35, (S)-3-(1-((4-methyl-4H-1,2,4-triazol-3-yl)thio)ethyl)-N-(quinolin-2-yl)benzamide] |
| 1 to 5 |  | COc1ccc(-c2cc(-c3cccc([C@H](C)Sc4nncn4C)c3)on2)cc1 [Example 59, (S)-3-(4-methoxyphenyl)-5-(3-(1-((4-methyl-4H-1,2,4-triazol-3-yl)thio)ethyl)phenyl)isoxazole] |
| ≥ 5 |  | C[C@H](Sc1nncn1C)c1cccc(NC(=O)N2CCC2c2ccccc2)c1 (stereo partly drawn) [Example 142, N-(3-((S)-1-((4-methyl-4H-1,2,4-triazol-3-yl)thio)ethyl)phenyl)-2-phenylazetidine-1-carboxamide] |
| ≥ 5 |  | C[C@H](Sc1nncn1C)c1cccc(NC(=O)N2CCS(=O)(=O)CC2)c1 [Example 165, (S)—N-(3-(1-((4-methyl-4H-1,2,4-triazol-3-yl)thio)ethyl)phenyl)thiomorpholine-4-carboxamide 1,1-dioxide] |
| 0.1 to 1 |  | C[C@H](Cc1nncn1C)c1cccc(NC(=O)N2CCOc3cc(Br)cnc32)c1 [Example 21, (R)-7-bromo-N-(3-(1-(4-methyl-4H-1,2,4-triazol-3-yl)propan-2-yl)phenyl)-2,3-dihydro-4H-pyrido[3,2-b][1,4]oxazine-4-carboxamide] |
| ≥ 5 |  | C[C@H](Sc1nncn1C)c1cccc(NC(=O)N2CCN(c3cccnc3)CC2)c1 [Example 149, (S)—N-(3-(1-((4-methyl-4H-1,2,4-triazol-3-yl)thio)ethyl)phenyl)-4-(pyridin-3-yl)piperazine-1-carboxamide] |
| 1 to 5 | 1 to 5 | C[C@H](Sc1nncn1C)c1cccc(C(=O)Nc2cc(C(F)(F)F)ccn2)c1 [Example 36, (S)-3-(1-((4-methyl-4H-1,2,4-triazol-3-yl)thio)ethyl)-N-(4-(trifluoromethyl)pyridin-2-yl)benzamide] |
| 1 to 5 | 1 to 5 | C[C@H](Sc1nncn1C)c1cccc(-n2ncc(-c3ccc(CO)cc3)n2)c1 [Example 84, (S)-(4-(2-(3-(1-(4-methyl-4H-1,2,4-triazol-3-ylthio)ethyl)phenyl)-2H-1,2,3-triazol-4-yl)phenyl)methanol] |
| 1 to 5 | 1 to 5 | CC(Sc1nncn1C)c1cccc(-n2cc(-c3ccccc3)nn2)c1 (stereo not shown) [Example 167, 1-(3-(1-((4-methyl-4H-1,2,4-triazol-3-yl)thio)ethyl)phenyl)-4-phenyl-1H-1,2,3-triazole] |

From patent US12653809B2, “Urea, amide, and substituted heteroaryl compounds for CBL-B inhibition” (Nurix Therapeutics, Inc., priority 2019, dated 2026)
